Patent US6323202A, “HSV primase inhibitors” (Boehringer Ingelheim (Canada) Ltd., priority 2000, dated 2001)

Columns and labels:
[1] = biological target: T1, HSV-1 helicase-primase (UL5(K103A) helicase-primase holoenzyme) (Human herpesvirus 1, UniProt P10189+P10236, K103A); test: HSV-1 Helicase-primase DNA Primase Assay (incorporation of [3H]GTP into primers); type: biochemical
T1 construct: made in house; host or cells: recombinant baculovirus expression (insect cells, by own knowledge of the cited Dodson 1989 and Dracheva 1995 methods)
T1 sequence (P10189 whole entry, looked up, stated change not applied): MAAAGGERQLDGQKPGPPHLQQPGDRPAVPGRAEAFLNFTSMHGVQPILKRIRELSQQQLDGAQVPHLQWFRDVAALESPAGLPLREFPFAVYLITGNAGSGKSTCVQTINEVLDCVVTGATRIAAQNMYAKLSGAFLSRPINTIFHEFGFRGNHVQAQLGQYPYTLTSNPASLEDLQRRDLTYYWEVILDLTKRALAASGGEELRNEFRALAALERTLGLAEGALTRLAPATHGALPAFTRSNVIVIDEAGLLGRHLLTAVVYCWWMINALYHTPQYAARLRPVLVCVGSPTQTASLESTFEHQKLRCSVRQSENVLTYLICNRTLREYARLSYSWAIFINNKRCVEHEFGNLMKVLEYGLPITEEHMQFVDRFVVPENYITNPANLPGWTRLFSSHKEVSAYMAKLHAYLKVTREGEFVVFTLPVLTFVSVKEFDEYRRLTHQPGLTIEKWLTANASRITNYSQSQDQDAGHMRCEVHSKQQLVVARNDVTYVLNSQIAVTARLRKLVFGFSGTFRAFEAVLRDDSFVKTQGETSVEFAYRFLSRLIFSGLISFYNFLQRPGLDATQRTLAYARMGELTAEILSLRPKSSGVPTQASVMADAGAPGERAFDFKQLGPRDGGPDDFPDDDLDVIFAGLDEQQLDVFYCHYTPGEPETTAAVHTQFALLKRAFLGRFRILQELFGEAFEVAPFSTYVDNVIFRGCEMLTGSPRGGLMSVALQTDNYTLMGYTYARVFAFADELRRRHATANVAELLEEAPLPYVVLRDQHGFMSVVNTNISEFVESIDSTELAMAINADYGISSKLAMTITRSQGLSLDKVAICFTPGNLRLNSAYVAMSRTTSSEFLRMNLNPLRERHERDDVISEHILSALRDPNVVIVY
T1 sequence (P10192 whole entry, stated change not applied, further chain): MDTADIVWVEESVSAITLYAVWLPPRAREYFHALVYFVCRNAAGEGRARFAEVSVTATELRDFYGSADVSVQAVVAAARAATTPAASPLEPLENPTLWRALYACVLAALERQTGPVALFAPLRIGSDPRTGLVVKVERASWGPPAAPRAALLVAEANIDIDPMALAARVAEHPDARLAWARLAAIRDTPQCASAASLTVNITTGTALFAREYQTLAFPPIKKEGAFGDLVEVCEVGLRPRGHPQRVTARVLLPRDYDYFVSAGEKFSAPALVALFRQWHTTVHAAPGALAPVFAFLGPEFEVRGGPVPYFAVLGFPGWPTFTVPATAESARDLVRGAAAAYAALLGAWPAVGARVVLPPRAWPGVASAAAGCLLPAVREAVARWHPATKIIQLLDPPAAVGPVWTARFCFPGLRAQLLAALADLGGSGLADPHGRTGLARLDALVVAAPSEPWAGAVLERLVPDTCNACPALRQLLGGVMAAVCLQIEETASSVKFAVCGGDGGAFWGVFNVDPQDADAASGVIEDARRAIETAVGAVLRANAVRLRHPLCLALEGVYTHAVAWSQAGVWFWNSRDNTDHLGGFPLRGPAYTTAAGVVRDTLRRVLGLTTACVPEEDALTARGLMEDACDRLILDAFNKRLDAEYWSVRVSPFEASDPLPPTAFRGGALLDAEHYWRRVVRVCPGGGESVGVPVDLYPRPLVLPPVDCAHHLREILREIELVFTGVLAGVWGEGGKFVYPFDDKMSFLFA
T1 sequence (P10236 whole entry, stated change not applied): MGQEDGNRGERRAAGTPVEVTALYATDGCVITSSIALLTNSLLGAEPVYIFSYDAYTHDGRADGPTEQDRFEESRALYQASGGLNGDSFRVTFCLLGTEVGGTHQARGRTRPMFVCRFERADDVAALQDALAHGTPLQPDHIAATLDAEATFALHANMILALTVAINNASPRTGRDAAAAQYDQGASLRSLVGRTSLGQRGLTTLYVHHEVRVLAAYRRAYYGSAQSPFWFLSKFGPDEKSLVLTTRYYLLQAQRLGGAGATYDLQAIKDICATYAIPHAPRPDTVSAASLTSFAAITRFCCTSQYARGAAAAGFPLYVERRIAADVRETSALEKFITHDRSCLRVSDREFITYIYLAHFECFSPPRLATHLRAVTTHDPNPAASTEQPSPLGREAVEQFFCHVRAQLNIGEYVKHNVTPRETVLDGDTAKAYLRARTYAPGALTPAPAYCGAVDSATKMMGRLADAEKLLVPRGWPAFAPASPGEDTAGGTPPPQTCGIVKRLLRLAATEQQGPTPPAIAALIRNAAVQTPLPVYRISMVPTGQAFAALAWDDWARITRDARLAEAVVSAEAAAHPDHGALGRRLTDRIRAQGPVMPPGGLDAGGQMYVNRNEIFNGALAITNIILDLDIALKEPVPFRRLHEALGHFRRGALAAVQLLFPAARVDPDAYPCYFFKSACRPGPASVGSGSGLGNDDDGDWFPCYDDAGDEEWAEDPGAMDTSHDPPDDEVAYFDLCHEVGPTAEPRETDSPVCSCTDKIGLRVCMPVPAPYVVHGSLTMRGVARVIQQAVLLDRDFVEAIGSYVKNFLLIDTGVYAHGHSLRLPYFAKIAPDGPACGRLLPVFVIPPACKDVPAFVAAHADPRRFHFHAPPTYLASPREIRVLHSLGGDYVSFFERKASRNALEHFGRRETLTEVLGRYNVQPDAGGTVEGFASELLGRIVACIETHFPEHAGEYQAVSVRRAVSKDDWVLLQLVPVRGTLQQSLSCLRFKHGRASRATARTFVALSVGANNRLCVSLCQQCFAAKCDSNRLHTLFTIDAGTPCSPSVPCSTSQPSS
Source text: i) HSV-1 Helicase-primase DNA Primase Assay
The HSV-1 helicase-primase enzyme used for primase assays was expressed and isolated as described (M. S. Dodson et al., J. Biol. Chem. 1989, 264, 20835; S. Dracheva et al. J. Biol. Chem. 1995, 270, 14148) except that the UL5-expressing baculovirus was changed to express UL5(K103A). The resulting altered enzyme contained no detectable helicase, DNA-dependent ATPase, or ATPase activity. However, DNA primase activity was increased over the wild type enzyme.
Assay: DNA primase activity was measured by the incorporation of [^3 H]GTP into newly synthesized primers by the UL5(K103A) helicase-primase holoenzyme. Assays were performed using as template the 50-mer single-stranded DNA oligonucleotide 5'-CTTCTTCGGT TCCGACTAC CCCTCCCGACTGCCTATGATGTTTATCCTTT G-3'OH (SEQ ID No. 1) derived from the preferred priming site on .phi.X174 single-stranded DNA [D. J. Teney et al., J. Biol. Chem. 1995, 270, 9129-9136]. The reaction mixtures (60 μl) contained […] pH 8.0, 5 mM magnesium chloride, 1 mM DTT, 0.01 % CHAPS, 100 μM each of ATP, GTP, CTP, 10 μM [biotin]UTP, 1 μCi [^3 H]GTP (specific activity 30.8 Ci/mmol), 1 μg of the 50-mer template and 45 μg/ml of the UL5(K103A)-altered helicase-primaseholoenzyme. The samples were incubated at 34° for 45 min in a circulating waterbath and reactions were quenched by the addition of 20 μl 0.5 M EDTA pH 8. Then, 50 μl of the reaction mixtures were transferred to Millipore filtration plates (MHVB N45, 0.45 μm) containing 40 μl of immobilized avidin beads (Pierce). After incubating 30 min at room temperature on a microplate shaker, the wells were washed five times with 300 μl wash buffer (50 mM 4-(2-hydroxyethyl)-1-piperazineethanesulfonic acid (HEPES) pH 7.5 and 0.5 M NaCl) and the filter plates were aspirated to dryness. The radioactivity in each well was counted using the Topcount® after adding 100 μl Microscint® 20 (Camberra-Packard Canada, Mississauga, Ontario, Canada) to each well.
In all cases, compounds were tested in three-fold serial dilutions and the results were expressed as percent inhibition as compared to control reactions without inhibitor. IC50 (i.e., inhibitor concentration that yielded 50% inhibition of enzyme activity) values were determined from dose-response curves using SAS software (SAS Institute, Cary, N.C., USA). A non-linear regression analysis based on the Hill equation, M. Dixon and E.C. Webb Enzymes, Academic Press: New York, N.Y., USA, 1979, was applied to the percent inhibition-concentration data.
(§1) Results for assay i are expressed under the heading HSV-1, IC50 (μM). Results for assay ii are expressed under the heading HSV-1, EC50 (μM).

HSV-1 = test: Inhibition of Herpes Simplex Virus (HSV-1) Replication in Cell Culture (ELISA of glycoprotein C); type: cell-based, HSV-1 strain F or KOS; conditions: Human alphaherpesvirus 1; viral replication in BHK-21 cells, MOI 0.05 PFU/cell, 24 h, 37°
Procedure: ii) Inhibition of Herpes Simplex Virus (HSV-1) Replication in Cell Culture
Assay: BHK-21 cells clone 13 (ATCC CCL10) were incubated for two days in 850 cm^2 roller bottles (2×10^7 cells/bottle) with α-MEM medium (Gibco Canada Inc., Burlington, Ontario, Canada) supplemented with 8% (v/v) fetal bovine serum (FBS, Gibco Canada, Inc.). The cells were trypsinized and then 3,000 cells in 100 μL of fresh medium were transferred into each well of a 96-well microtiter plate. The cells were incubated at 37° for a period of 3 days to reach a density of 50,000 cells per well. The cells were washed twice with 100 μL of α-MEM supplemented with 2% heat inactivated FBS and incubated for 1-2 h in 100 μL of the same medium.
Thereafter, the cells were infected with HSV-1 strain F or KOS (multiplicity of infection=0.05 PFU/cell) in 50 μL of α-MEM supplemented with 2% heat inactivated FBS. Following one hour of virus absorption at 37°, the medium was removed and the cells were washed with α-MEM supplemented with 2% heat inactivated FBS (2×100 μL). The cells were incubated with or without 100 μL of the appropriate concentration of test reagent in α-MEM medium supplemented with 2% heat inactivated FBS. After 24 h of incubation at 37°, the extent of viral replication was determined by an ELISA assay; for instance, the following assay that detects the late glycoprotein C of HSV-1.
Cells were fixed in the microtiter plate with 100 μL of 0.063% glutaraldehyde in phosphate buffered saline for 30 min at room temperature. The microtiter plate was then washed once with casein blocking solution and blocked with 200 μL of the same solution for 1 h at room temperature. Thereafter, 100 μL of mAb C11 recognizing the glycoprotein C of HSV-1 (see E. Trybala et al., Journal of General Virology, 1994, 75, 743) was added to each well for 2 h at room temperature. The plate was washed three times with phosphate buffered saline containing 0.05% polyoxyethylene (20) sorbitan monooleate. The cells were incubated with 100 μL of sheep anti-mouse IgG horseradish peroxidase for 1 h at room temperature in the dark.
The plate was washed three times with 200 μL of the above-noted phosphate buffer saline preparation, and then once with 0.1 M sodium citrate (pH 4.5). Thereafter, 100 μL of orthophenylenediamine dihydrochloride (OPD, Gibco, Canada Inc.) was added to each well. The plate was agitated on a microplate shaker for 30 min in the dark. Color development was monitored at 450 nm using a microplate spectrophotometer.
SAS was used to calculate % inhibition of viral replication and to generate EC50 values.
as §1

CCCCC(C(=O)OCC)C(=O)c1cccc(NC(=O)c2ccc(Cl)cc2O)c1 (stereo not drawn) [Entry 1, Ethyl α-butyl-3-{(4chloro2-hydroxybenzoyl)amino}-β-oxobenzenepropanoate]
IC50 [1]: 1000 to 100000 nM
EC50 (HSV-1): 1000 to 100000 nM

CC(=O)c1cccc(NC(=O)c2ccc(Cl)cc2O)c1 [Entry 2]
IC50 [1]: 1000 to 100000 nM
EC50 (HSV-1): 1000 to 100000 nM

CCOC(=O)CC(=O)c1cccc(NC(=O)c2ccc(Cl)cc2O)c1 [Entry 3]
IC50 [1]: 1000 to 100000 nM
EC50 (HSV-1): 1000 to 100000 nM

CCCC(=O)c1cccc(NC(=O)c2ccc(Cl)cc2O)c1 [Entry 4]
IC50 [1]: 1000 to 100000 nM
EC50 (HSV-1): 1000 to 100000 nM

O=C(Cc1ccccc1)c1cccc(NC(=O)c2ccc(Cl)cc2O)c1 [Entry 5]
IC50 [1]: 1000 to 100000 nM
EC50 (HSV-1): 1000 to 100000 nM

O=C(Nc1cccc(C(=O)C2CCCCC2)c1)c1ccc(Cl)cc1O [Entry 6]
IC50 [1]: 1000 to 100000 nM
EC50 (HSV-1): 1000 to 100000 nM

O=C(CCc1ccccc1)c1cccc(NC(=O)c2ccc(Cl)cc2O)c1 [Entry 7]
IC50 [1]: 1000 to 100000 nM

O=C(OCc1ccccn1)c1cccc(NC(=O)c2ccc(Cl)cc2O)c1 [Entry 8]
IC50 [1]: < 1000 nM
EC50 (HSV-1): 1000 to 100000 nM

O=C(OCc1ccccc1)c1cccc(NC(=O)c2ccc(Cl)cc2O)c1 [Entry 9]
IC50 [1]: < 1000 nM

O=C(Nc1cccc(C(=O)N2CCCCC2)c1)c1ccc(Cl)cc1O [Entry 10]
IC50 [1]: > 100000 nM
EC50 (HSV-1): < 1000 nM

CN(CCc1ccccn1)C(=O)c1cccc(NC(=O)c2ccc(Cl)cc2O)c1 [Entry 11]
IC50 [1]: > 100000 nM

CCCCN(C)C(=O)c1cccc(NC(=O)c2ccc(Cl)cc2O)c1 [Entry 12, N-Butyl-N-methyl-3-{(4-chloro-2-hydroxybenzoyl)amino)benzamide]
IC50 [1]: > 100000 nM
EC50 (HSV-1): < 1000 nM

O=C(NCC1CCCCC1)c1cccc(NC(=O)c2ccc(Cl)cc2O)c1 [Entry 13]
IC50 [1]: < 1000 nM
EC50 (HSV-1): 1000 to 100000 nM

O=C(NCCc1ccccn1)c1cccc(NC(=O)c2ccc(Cl)cc2O)c1 [Entry 14]
IC50 [1]: 1000 to 100000 nM
EC50 (HSV-1): 1000 to 100000 nM

O=C(NCc1ccccc1)c1cccc(NC(=O)c2ccc(Cl)cc2O)c1 [Entry 15]
IC50 [1]: < 1000 nM
EC50 (HSV-1): 1000 to 100000 nM

CCCCNC(=O)c1cccc(NC(=O)c2ccc(Cl)cc2O)c1 [Entry 16]
IC50 [1]: 1000 to 100000 nM
EC50 (HSV-1): 1000 to 100000 nM

O=C(NCc1ccccn1)c1cccc(NC(=O)c2ccc(Cl)cc2O)c1 [Entry 17]
IC50 [1]: < 1000 nM
EC50 (HSV-1): 1000 to 100000 nM

O=C(NC1CCCCC1)c1cccc(NC(=O)c2ccc(Cl)cc2O)c1 [Entry 18]
IC50 [1]: 1000 to 100000 nM
EC50 (HSV-1): < 1000 nM

O=C(NCc1ccncc1)c1cccc(NC(=O)c2ccc(Cl)cc2O)c1 [Entry 19]
IC50 [1]: 1000 to 100000 nM

CCCCCC(=O)c1cccc(NC(=O)c2cccc(Cl)c2O)c1 [Entry 101]
IC50 [1]: 1000 to 100000 nM
EC50 (HSV-1): 1000 to 100000 nM

Cc1ccc(C(=O)Nc2cccc(C(=O)NCc3ccccc3)c2)c(O)c1 [Entry 102]
IC50 [1]: < 1000 nM

COc1ccc(C(=O)Nc2cccc(C(=O)NCc3ccccc3)c2)c(O)c1 [Entry 103]
IC50 [1]: < 1000 nM

[N-]=[N+]=Nc1ccc(C(=O)Nc2cccc(C(=O)NCc3ccccc3)c2)c(O)c1 [Entry 104]
IC50 [1]: < 1000 nM

Nc1ccccc1C(=O)Nc1cccc(C(=O)NCc2ccccc2)c1 [Entry 105]
IC50 [1]: > 100000 nM

[N-]=[N+]=Nc1cc(O)c(C(=O)Nc2cccc(C(=O)NCc3ccccc3)c2)cc1I [Entry 106]
IC50 [1]: < 1000 nM

Nc1cc(Cl)ccc1C(=O)Nc1cccc(C(=O)NCc2ccccc2)c1 [Entry 107]
IC50 [1]: > 100000 nM

Nc1ccc(C(=O)Nc2cccc(C(=O)NCc3ccccc3)c2)c(O)c1 [Entry 108]
IC50 [1]: 1000 to 100000 nM
